This note sets out measurements from ChEMBL document CHEMBL5291721, “A preclinical secondary pharmacology resource illuminates target-adverse drug reaction associations of marketed drugs” (Nat Commun, 2023).

Molecules are shown by their SMILES.

For experiment [1], the target named is T1, Progesterone receptor (Homo sapiens, UniProt P06401).
T1 sequence (P06401 whole entry): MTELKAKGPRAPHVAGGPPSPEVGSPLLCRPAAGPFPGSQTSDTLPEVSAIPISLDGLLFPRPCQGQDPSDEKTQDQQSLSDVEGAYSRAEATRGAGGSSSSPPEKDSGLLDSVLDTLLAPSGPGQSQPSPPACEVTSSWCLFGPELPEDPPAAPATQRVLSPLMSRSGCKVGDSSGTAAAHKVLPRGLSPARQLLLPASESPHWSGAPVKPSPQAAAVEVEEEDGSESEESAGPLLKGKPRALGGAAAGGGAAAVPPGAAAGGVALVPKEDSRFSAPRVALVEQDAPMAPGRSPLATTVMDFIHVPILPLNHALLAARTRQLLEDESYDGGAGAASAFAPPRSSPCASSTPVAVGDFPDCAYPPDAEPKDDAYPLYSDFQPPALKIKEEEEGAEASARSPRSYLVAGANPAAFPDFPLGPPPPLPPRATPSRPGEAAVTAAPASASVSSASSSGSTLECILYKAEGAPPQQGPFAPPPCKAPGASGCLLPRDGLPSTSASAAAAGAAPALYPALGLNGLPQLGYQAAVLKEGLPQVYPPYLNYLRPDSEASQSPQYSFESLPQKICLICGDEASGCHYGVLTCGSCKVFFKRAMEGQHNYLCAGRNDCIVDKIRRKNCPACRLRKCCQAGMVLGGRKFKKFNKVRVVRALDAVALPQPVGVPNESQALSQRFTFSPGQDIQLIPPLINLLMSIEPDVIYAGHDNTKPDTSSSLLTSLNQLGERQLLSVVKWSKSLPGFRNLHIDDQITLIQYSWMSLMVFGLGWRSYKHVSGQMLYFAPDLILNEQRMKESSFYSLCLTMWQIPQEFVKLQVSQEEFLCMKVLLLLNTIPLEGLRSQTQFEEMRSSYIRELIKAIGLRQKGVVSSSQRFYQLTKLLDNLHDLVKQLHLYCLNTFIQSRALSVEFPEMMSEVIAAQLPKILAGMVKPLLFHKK

Experiment [2] deals with T2, Muscarinic acetylcholine receptor M2 (Homo sapiens, UniProt P08172).
T2 sequence (P08172 whole entry): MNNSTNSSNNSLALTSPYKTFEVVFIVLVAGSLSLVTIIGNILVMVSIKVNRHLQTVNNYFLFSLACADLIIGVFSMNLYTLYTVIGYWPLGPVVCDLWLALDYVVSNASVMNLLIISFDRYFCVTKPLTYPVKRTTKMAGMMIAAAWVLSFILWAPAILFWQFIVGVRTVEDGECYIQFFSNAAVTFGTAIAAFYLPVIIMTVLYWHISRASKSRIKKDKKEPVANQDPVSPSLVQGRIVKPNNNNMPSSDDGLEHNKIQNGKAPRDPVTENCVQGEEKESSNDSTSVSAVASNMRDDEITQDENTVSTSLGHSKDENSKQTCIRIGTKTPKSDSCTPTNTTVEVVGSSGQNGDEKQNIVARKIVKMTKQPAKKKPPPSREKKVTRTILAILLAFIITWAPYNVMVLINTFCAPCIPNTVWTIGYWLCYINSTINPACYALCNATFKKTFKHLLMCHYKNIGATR
It counts as functional, cell-based.

In experiment [3] the target is T3, Adenosine receptor A3 (Homo sapiens, UniProt P0DMS8).
T3 sequence (P0DMS8 whole entry): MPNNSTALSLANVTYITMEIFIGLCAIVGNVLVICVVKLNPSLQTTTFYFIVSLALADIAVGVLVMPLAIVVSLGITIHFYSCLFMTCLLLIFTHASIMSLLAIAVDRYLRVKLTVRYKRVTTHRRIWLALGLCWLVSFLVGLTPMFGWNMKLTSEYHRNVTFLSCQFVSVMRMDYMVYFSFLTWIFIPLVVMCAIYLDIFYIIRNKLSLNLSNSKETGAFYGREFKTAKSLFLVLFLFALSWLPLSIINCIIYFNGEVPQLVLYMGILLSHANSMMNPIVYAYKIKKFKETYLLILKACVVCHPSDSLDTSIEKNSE

Experiment [4] concerns the target Beta-1 adrenergic receptor (Homo sapiens, UniProt P08588). It counts as functional.
The target of experiment [5] is T4, 5-hydroxytryptamine receptor 2C (Homo sapiens, UniProt P28335).
T4 sequence (P28335 whole entry): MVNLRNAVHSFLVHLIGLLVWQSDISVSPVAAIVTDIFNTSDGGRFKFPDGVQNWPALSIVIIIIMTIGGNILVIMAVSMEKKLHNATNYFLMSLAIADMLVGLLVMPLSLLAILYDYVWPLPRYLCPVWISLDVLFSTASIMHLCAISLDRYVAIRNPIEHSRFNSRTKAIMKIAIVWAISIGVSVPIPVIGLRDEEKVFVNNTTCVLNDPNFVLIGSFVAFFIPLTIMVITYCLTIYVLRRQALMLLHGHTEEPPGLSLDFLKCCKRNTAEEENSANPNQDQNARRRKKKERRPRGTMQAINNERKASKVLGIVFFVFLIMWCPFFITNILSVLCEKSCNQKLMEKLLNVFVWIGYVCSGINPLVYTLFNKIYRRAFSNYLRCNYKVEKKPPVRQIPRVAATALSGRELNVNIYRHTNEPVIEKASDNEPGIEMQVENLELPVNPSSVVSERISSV

For experiment [6], the target named is D(1A) dopamine receptor (Homo sapiens, UniProt P21728). It is filed as functional, cell-based.
The target of experiment [7] is Histamine H3 receptor (Homo sapiens, UniProt Q9Y5N1).
Experiment [8] concerns the target T2, Muscarinic acetylcholine receptor M2. It is filed as functional, cell-based. This is another data set of the same source.
Further: assay procedure not described here.

Chain of Beta-1 adrenergic receptor (P08588 whole entry): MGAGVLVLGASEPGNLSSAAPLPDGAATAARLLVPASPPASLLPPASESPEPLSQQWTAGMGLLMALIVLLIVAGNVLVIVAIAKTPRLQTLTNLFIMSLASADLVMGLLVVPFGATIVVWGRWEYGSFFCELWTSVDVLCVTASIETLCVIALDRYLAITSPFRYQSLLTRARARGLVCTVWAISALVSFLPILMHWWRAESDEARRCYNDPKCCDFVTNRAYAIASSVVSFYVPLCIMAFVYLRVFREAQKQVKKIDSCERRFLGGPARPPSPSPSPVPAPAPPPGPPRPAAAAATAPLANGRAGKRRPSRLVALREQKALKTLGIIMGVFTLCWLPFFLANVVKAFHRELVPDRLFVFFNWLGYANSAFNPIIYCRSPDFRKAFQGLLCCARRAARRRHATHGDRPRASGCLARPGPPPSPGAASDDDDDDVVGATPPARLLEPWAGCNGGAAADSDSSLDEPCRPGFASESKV
Chain of Histamine H3 receptor (Q9Y5N1 whole entry): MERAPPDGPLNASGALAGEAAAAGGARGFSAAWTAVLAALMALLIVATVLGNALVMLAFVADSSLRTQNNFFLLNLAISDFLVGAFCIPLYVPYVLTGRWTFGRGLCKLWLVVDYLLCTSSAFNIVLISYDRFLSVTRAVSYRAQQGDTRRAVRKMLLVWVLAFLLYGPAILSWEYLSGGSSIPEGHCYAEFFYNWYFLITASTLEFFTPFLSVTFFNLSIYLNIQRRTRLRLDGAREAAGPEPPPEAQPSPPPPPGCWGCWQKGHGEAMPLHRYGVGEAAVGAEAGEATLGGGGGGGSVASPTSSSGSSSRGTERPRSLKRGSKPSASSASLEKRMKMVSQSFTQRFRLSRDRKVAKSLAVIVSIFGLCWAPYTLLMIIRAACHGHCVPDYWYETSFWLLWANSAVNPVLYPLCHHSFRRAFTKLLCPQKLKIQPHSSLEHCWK
Chain of D(1A) dopamine receptor (P21728 whole entry): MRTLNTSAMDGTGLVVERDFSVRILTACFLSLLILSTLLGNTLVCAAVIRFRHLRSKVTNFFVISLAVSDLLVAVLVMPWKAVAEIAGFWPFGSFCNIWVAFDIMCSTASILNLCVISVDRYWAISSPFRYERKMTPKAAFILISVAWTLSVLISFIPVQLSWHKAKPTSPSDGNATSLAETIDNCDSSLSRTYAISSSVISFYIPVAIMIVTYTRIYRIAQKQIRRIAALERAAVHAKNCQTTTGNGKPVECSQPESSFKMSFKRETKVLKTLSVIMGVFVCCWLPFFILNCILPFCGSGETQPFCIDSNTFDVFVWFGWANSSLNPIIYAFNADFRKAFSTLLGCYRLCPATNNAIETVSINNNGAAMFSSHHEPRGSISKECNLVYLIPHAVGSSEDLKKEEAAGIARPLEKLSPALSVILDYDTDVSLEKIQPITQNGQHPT

As for `CN1CCC[C@@H]1Cc1c[nH]c2ccc(CCS(=O)(=O)c3ccccc3)cc12`, in experiment [1], the AC50 (as a rule, the concentration giving half of the maximal activity seen) is more than 30 µM.
With `CC(/C=C1\SC(=S)N(CC(=O)O)C1=O)=C\c1ccccc1`, the concentration at half-maximal activity (AC50) in experiment [2] was more than 30 µM; in experiment [3] it was 20 µM; in experiment [4], 26 µM; in experiment [5] it was 6.4 µM; in experiment [6] it was more than 30 µM; in experiment [7] it was more than 30 µM. The same compound returned an AC50 in experiment [8] of more than 30 µM.
As to `CC1(C)S[C@@H]2[C@H](NC(=O)[C@H](N)c3ccc(O)cc3)C(=O)N2[C@H]1C(=O)O` [AMOXICILLIN], the AC50 in experiment [2], in experiment [3], in experiment [4], in experiment [5], in experiment [6] and in experiment [7] was more than 30 µM throughout. Besides, the AC50 in experiment [8] is more than 30 µM.
On to `CNCC[C@@H](Oc1ccccc1C)c1ccccc1` [ATOMOXETINE], for which the AC50 in experiment [3] was more than 30 µM; in experiment [4], more than 30 µM; in experiment [6] it was more than 30 µM; in experiment [7], 30 µM.
For `CCc1oc2ccccc2c1C(=O)c1cc(Br)c(O)c(Br)c1` [BENZBROMARONE], the AC50 is 4.19 µM in experiment [3]; 29 µM in experiment [4]; more than 30 µM in experiment [5]; more than 30 µM in experiment [6]; more than 30 µM in experiment [7]; 14 µM in experiment [8].
As to `Clc1cccc(Cl)c1N=C1NCCN1` [CLONIDINE], the AC50 in experiment [2] was more than 10 µM; in experiment [3], more than 30 µM; in experiment [4] it was more than 10 µM; in experiment [5] it was more than 30 µM; in experiment [6], more than 10 µM; in experiment [7], more than 10 µM. This compound also yielded an AC50 in experiment [8] of more than 10 µM.
For `COC(=O)[C@H](c1ccccc1Cl)N1CCc2sccc2C1` [CLOPIDOGREL], the AC50 is 27 µM in experiment [2]; more than 30 µM in experiment [3]; more than 30 µM in experiment [5]; 19 µM in experiment [6]; more than 30 µM in experiment [7]; more than 30 µM in experiment [8].
`CN1C[C@H](C(=O)N[C@]2(C)O[C@@]3(O)[C@@H]4CCCN4C(=O)[C@H](Cc4ccccc4)N3C2=O)C[C@@H]2c3cccc4[nH]cc(c34)C[C@H]21` [DIHYDROERGOTAMINE]: the AC50 in experiment [2] is more than 10 µM; in experiment [3], more than 30 µM; in experiment [4], more than 10 µM; in experiment [5], 0.5 µM; in experiment [6], 0.358 µM; in experiment [7], more than 10 µM. In experiment [8], this compound gave an AC50 of more than 10 µM.
`CC1(C)O[C@@H]2C[C@H]3[C@@H]4C[C@H](F)C5=CC(=O)C=C[C@]5(C)[C@H]4[C@@H](O)C[C@]3(C)[C@]2(C(=O)CO)O1` [FLUNISOLIDE]: the AC50 in experiment [2], in experiment [3], in experiment [4], in experiment [5], in experiment [6] and in experiment [7] was more than 30 µM throughout. In experiment [8], this compound gave an AC50 of more than 30 µM.
Consider `Nc1nc(O)c2ncn(COC(CO)CO)c2n1` [GANCICLOVIR], for which the AC50 in experiment [2], in experiment [3], in experiment [4], in experiment [5], in experiment [6] and in experiment [7] was more than 30 µM throughout. Further, in experiment [8], the AC50 is more than 30 µM.
In the case of `Cc1cnc(NC(=O)C2=C(O)c3ccccc3S(=O)(=O)N2C)s1` [MELOXICAM], the AC50 in experiment [2] was more than 10 µM; in experiment [3], more than 30 µM; in experiment [4] it was more than 10 µM; in experiment [5], more than 10 µM; in experiment [6] it was more than 10 µM; in experiment [7], more than 10 µM. In experiment [8], the AC50 was more than 10 µM.
`CC[C@@H](CO)NC(=O)[C@@H]1C=C2c3cccc4[nH]cc(c34)C[C@H]2N(C)C1` [METHYLERGONOVINE]: the half-maximal activity concentration (AC50) is more than 30 µM in experiment [2]; more than 30 µM in experiment [3]; 0.12 µM in experiment [5]; 0.0031 µM in experiment [6]; more than 30 µM in experiment [7]; more than 30 µM in experiment [8].
As for `CNCCC=C1c2ccccc2CCc2ccccc21` [NORTRIPTYLINE], the AC50 is 1.9 µM in experiment [2]; more than 30 µM in experiment [3]; more than 30 µM in experiment [6]; more than 30 µM in experiment [7]; more than 30 µM in experiment [8].
With `COc1ccnc(C[S+]([O-])c2nc3ccc(OC(F)F)cc3[nH]2)c1OC` (stereo not drawn) [PANTOPRAZOLE], the concentration at half-maximal activity (AC50) in experiment [2] is more than 10 µM; in experiment [4] it was more than 10 µM; in experiment [5] it was more than 30 µM; in experiment [6], more than 10 µM; in experiment [7], more than 10 µM; in experiment [8], more than 10 µM.
With `COc1ccc(Cc2nccc3cc(OC)c(OC)cc23)cc1OC` [PAPAVERINE], the AC50 in experiment [2], in experiment [3], in experiment [4], in experiment [5], in experiment [6] and in experiment [7] was more than 30 µM in each case. Also, the AC50 in experiment [8] was more than 30 µM.
For the compound `O=C1NC(=O)C(c2ccccc2)(c2ccccc2)N1` [PHENYTOIN], the AC50 in experiment [2], in experiment [3], in experiment [4], in experiment [5], in experiment [6] and in experiment [7] was more than 30 µM in each case. This compound also showed an AC50 in experiment [8] of more than 30 µM.
With `NC(=O)c1ncn([C@@H]2O[C@H](CO)[C@@H](O)[C@H]2O)n1` [RIBAVIRIN], the concentration at half-maximal activity (AC50) in experiment [2] was more than 10 µM; in experiment [3], more than 10 µM; in experiment [4], more than 10 µM; in experiment [5] it was more than 30 µM; in experiment [6], more than 10 µM; in experiment [7], more than 10 µM. This compound also yielded an AC50 in experiment [8] of more than 10 µM.
In the case of `CC[C@H]1OC(=O)[C@H](C)[C@@H](O[C@H]2C[C@@](C)(OC)[C@@H](O)[C@H](C)O2)[C@H](C)[C@@H](O[C@@H]2O[C@H](C)C[C@H](N(C)C)[C@H]2O)[C@](C)(O)C[C@@H](C)/C(=N\OCOCCOC)[C@H](C)[C@@H](O)[C@]1(C)O` [ROXITHROMYCIN], the AC50 in experiment [2], in experiment [3], in experiment [4], in experiment [5], in experiment [6] and in experiment [7] was more than 30 µM each time. Moreover, the half-maximal activity concentration (AC50) in experiment [8] was more than 30 µM.
Consider `CC(=O)S[C@@H]1CC2=CC(=O)CC[C@]2(C)[C@H]2CC[C@@]3(C)[C@@H](CC[C@@]34CCC(=O)O4)[C@H]12` [SPIRONOLACTONE], for which the AC50 in experiment [2] was 26 µM; in experiment [3], more than 30 µM; in experiment [4], more than 30 µM; in experiment [5], more than 30 µM; in experiment [6], more than 30 µM; in experiment [7] it was more than 30 µM. The compound further returned an AC50 in experiment [8] of more than 30 µM.
